Experimental data taken from patent US20200038486A1, “THERAPEUTIC MEDICINE FOR FIBROUS DISEASE” (StemRIM Inc., priority 2017, published 2020).
Where no end group is shown, it is not given here.

System: 129SV/colVII homo mice (epidermolysis bullosa model mice)
Test: Forelimb finger adhesion in epidermolysis bullosa model mice
Format: in vivo
Settings: from the start of treatment to Week 8

Sequence: MGKGDPKKPRGKMSSYAFFVQTCREEHKKKHPDASVNFSEFSKK [HMGB1 peptide (1-44)]
- body weight compared with the vehicle group: no significant difference between the groups
